# Assay: Western blot analysis for "B" compounds
# Format: cell-based
# Conditions: read-out: Traditional Western Degradation Potency (DC50)
# How it was run: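 Target protein levels given as relative mean band intensity over GAPDH from scanned immunoblots. Lysates of treated cells in RIPA buffer, equalized by BCA, separated on 10% gels and transferred to PVDF.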
row,DC50 [nM],Structure (SMILES)
1,> 100,"O=C1CCC(N2C(=O)c3cc4c(cc3C2=O)CN(C2CCC(NC3CCN(c5ccc([C@@H]6c7ccc(O)cc7CC[C@@H]6c6ccccc6)cc5)CC3)CC2)C4)C(=O)N1 (stereo partly drawn) [Compound B84, 2-(2,6-dioxopiperidin-3-yl)-6-(4-((1-(4-((1R,2S)-6-hydroxy-2-phenyl-1,2,3,4-tetrahydronaphthalen-1-yl)phenyl)piperidin-4-yl)amino)cyclohexyl)-6,7-dihydropyrrolo[3,4-f]isoindole-1,3(2H,5H)-dione]"
2,> 100,"CN(C1CCC(N2Cc3cc4c(cc3C2)C(=O)N(C2CCC(=O)NC2=O)C4=O)CC1)C1CCN(c2ccc([C@@H]3c4ccc(O)cc4CC[C@@H]3c3ccccc3)cc2)CC1 (stereo partly drawn) [Compound B88, 2-(2,6-dioxopiperidin-3-yl)-6-(4-((1-(4-((1R,2S)-6-hydroxy-2-phenyl-1,2,3,4-tetrahydronaphthalen-1-yl)phenyl)piperidin-4-yl)(methyl)amino)cyclohexyl)-6,7-dihydropyrrolo[3,4-f]isoindole-1,3(2H,5H)-dione]"
3,> 100,"O=C1CCC(N2C(=O)c3cc4c(cc3C2=O)CN(c2ncc(CN3CC(Oc5ccc([C@@H]6c7ccc(O)cc7CC[C@@H]6c6ccccc6)cc5)C3)cn2)C4)C(=O)N1 (stereo partly drawn) [Compound B89, 2-(2,6-dioxopiperidin-3-yl)-6-(5-((3-(4-((1R,2S)-6-hydroxy-2-phenyl-1,2,3,4-tetrahydronaphthalen-1-yl)phenoxy)azetidin-1-yl)methyl)pyrimidin-2-yl)-6,7-dihydropyrrolo[3,4-f]isoindole-1,3(2H,5H)-dione]"
4,> 100,"O=C1CCC(N2C(=O)c3cc4c(cc3C2=O)CN(c2ccc(CN3CC(Oc5ccc([C@@H]6c7ccc(O)cc7CC[C@@H]6c6ccccc6)cc5)C3)cn2)C4)C(=O)N1 (stereo partly drawn) [Compound B90, 2-(2,6-dioxopiperidin-3-yl)-6-(5-((3-(4-((1R,2S)-6-hydroxy-2-phenyl-1,2,3,4-tetrahydronaphthalen-1-yl)phenoxy)azetidin-1-yl)methyl)pyridin-2-yl)-6,7-dihydropyrrolo[3,4-f]isoindole-1,3(2H,5H)-dione]"
5,10 to 100,"O=C1CCC(N2C(=O)c3cc4c(cc3C2=O)CN(Cc2ccc(N3CC(Oc5ccc([C@@H]6c7ccc(O)cc7CC[C@@H]6c6ccccc6)cc5)C3)nc2)C4)C(=O)N1 (stereo partly drawn) [Compound B91, 2-(2,6-dioxopiperidin-3-yl)-6-((6-(3-(4-((1R,2S)-6-hydroxy-2-phenyl-1,2,3,4-tetrahydronaphthalen-1-yl)phenoxy)azetidin-1-yl)pyridin-3-yl)methyl)-6,7-dihydropyrrolo[3,4-f]isoindole-1,3(2H,5H)-dione]"
6,> 100,"O=C1CCC(N2C(=O)c3cc4c(cc3C2=O)CN(Cc2cnc(N3CC(Oc5ccc([C@@H]6c7ccc(O)cc7CC[C@@H]6c6ccccc6)cc5)C3)nc2)C4)C(=O)N1 (stereo partly drawn) [Compound B92, 2-(2,6-dioxopiperidin-3-yl)-6-((2-(3-(4-((1R,2S)-6-hydroxy-2-phenyl-1,2,3,4-tetrahydronaphthalen-1-yl)phenoxy)azetidin-1-yl)pyrimidin-5-yl)methyl)-6,7-dihydropyrrolo[3,4-f]isoindole-1,3(2H,5H)-dione]"
7,> 100,"O=C1CCC(N2C(=O)c3cc4c(cc3C2=O)CN(CC(=O)NC2CCN(c3ccc([C@@H]5c6ccc(O)cc6CC[C@@H]5c5ccccc5)cc3)CC2)C4)C(=O)N1 (stereo partly drawn) [Compound B93, 2-(6-(2,6-dioxopiperidin-3-yl)-5,7-dioxo-3,5,6,7-tetrahydropyrrolo[3,4-f]isoindol-2(1H)-yl)-N-(1-(4-((1R,2S)-6-hydroxy-2-phenyl-1,2,3,4-tetrahydronaphthalen-1-yl)phenyl)piperidin-4-yl)acetamide]"
8,> 100,"O=C1CCC(N2C(=O)c3cc4c(cc3C2=O)CN(CCC(=O)NC2CCN(c3ccc([C@@H]5c6ccc(O)cc6CC[C@@H]5c5ccccc5)cc3)CC2)C4)C(=O)N1 (stereo partly drawn) [Compound B94, 3-(6-(2,6-dioxopiperidin-3-yl)-5,7-dioxo-3,5,6,7-tetrahydropyrrolo[3,4-f]isoindol-2(1H)-yl)-N-(1-(4-((1R,2S)-6-hydroxy-2-phenyl-1,2,3,4-tetrahydronaphthalen-1-yl)phenyl)piperidin-4-yl)propenamide]"
9,> 100,"CN(CC1CN(c2ccc([C@@H]3c4ccc(O)cc4CC[C@@H]3c3ccccc3)cc2)C1)C1CCC(N2Cc3cc4c(cc3C2)C(=O)N(C2CCC(=O)NC2=O)C4=O)CC1 (stereo partly drawn) [Compound B95, 2-(2,6-dioxopiperidin-3-yl)-6-(4-(((1-(4-((1R,2S)-6-hydroxy-2-phenyl-1,2,3,4-tetrahydronaphthalen-1-yl)phenyl)azetidin-3-yl)methyl)(methyl)amino)cyclohexyl)-6,7-dihydropyrrolo[3,4-f]isoindole-1,3(2H,5H)-dione]"
10,> 100,"O=C1CCC(N2C(=O)c3cc4c(cc3C2=O)CN([C@H]2CC[C@@H](NC3CCN(c5ccc([C@@H]6c7ccc(O)cc7CC[C@@H]6c6ccccc6)cc5)CC3)CC2)C4)C(=O)N1 (stereo partly drawn) [Compound B96, 2-(2,6-dioxopiperidin-3-yl)-6-((1S,4s)-4-((1-(4-((1R,2S)-6-hydroxy-2-phenyl-1,2,3,4-tetrahydronaphthalen-1-yl)phenyl)piperidin-4-yl)amino)cyclohexyl)-6,7-dihydropyrrolo[3,4-f]isoindole-1,3(2H,5H)-dione]"
11,> 100,"O=C1CCC(N2C(=O)c3cc4c(cc3C2=O)CN([C@H]2CC[C@H](NC3CCN(c5ccc([C@@H]6c7ccc(O)cc7CC[C@@H]6c6ccccc6)cc5)CC3)CC2)C4)C(=O)N1 (stereo partly drawn) [Compound B97, 2-(2,6-dioxopiperidin-3-yl)-6-((1R,4r)-4-((1-(4-((1R,2S)-6-hydroxy-2-phenyl-1,2,3,4-tetrahydronaphthalen-1-yl)phenyl)piperidin-4-yl)amino)cyclohexyl)-6,7-dihydropyrrolo[3,4-f]isoindole-1,3(2H,5H)-dione]"
12,> 100,"O=C1CCC(N2C(=O)c3cc4c(cc3C2=O)CN(C2CCC(C(=O)NC3CN(c5ccc([C@@H]6c7ccc(O)cc7CC[C@@H]6c6ccccc6)cc5)C3)CC2)C4)C(=O)N1 (stereo partly drawn) [Compound B98, 4-(6-(2,6-dioxopiperidin-3-yl)-5,7-dioxo-3,5,6,7-tetrahydropyrrolo[3,4-f]isoindol-2(1H)-yl)-N-(1-(4-((1R,2S)-6-hydroxy-2-phenyl-1,2,3,4-tetrahydronaphthalen-1-yl)phenyl)azetidin-3-yl)cyclohexane-1-carboxamide]"
13,> 100,"O=C1CCC(N2C(=O)c3cc4c(cc3C2=O)CN(CC2CCC(NC3CN(c5ccc([C@@H]6c7ccc(O)cc7CC[C@@H]6c6ccccc6)cc5)C3)CC2)C4)C(=O)N1 (stereo partly drawn) [Compound B99, 2-(2,6-dioxopiperidin-3-yl)-6-((4-((1-(4-((1R,2S)-6-hydroxy-2-phenyl-1,2,3,4-tetrahydronaphthalen-1-yl)phenyl)azetidin-3-yl)amino)cyclohexyl)methyl)-6,7-dihydropyrrolo[3,4-f]isoindole-1,3(2H,5H)-dione]"
14,> 100,"O=C1CCC(N2C(=O)c3cc4c(cc3C2=O)CN(C2CCC(CNC3CN(c5ccc([C@@H]6c7ccc(O)cc7CC[C@@H]6c6ccccc6)cc5)C3)CC2)C4)C(=O)N1 (stereo partly drawn) [Compound B100, 2-(2,6-dioxopiperidin-3-yl)-6-(4-(((1-(4-((1R,2S)-6-hydroxy-2-phenyl-1,2,3,4-tetrahydronaphthalen-1-yl)phenyl)azetidin-3-yl)amino)methyl)cyclohexyl)-6,7-dihydropyrrolo[3,4-f]isoindole-1,3(2H,5H)-dione]"
15,> 100,"O=C1CCC(N2C(=O)c3cc4c(cc3C2=O)CN(C2CCC(NCC3CN(c5ccc([C@@H]6c7ccc(O)cc7CC[C@@H]6c6ccccc6)cc5)C3)CC2)C4)C(=O)N1 (stereo partly drawn) [Compound B101, 2-(2,6-dioxopiperidin-3-yl)-6-(4-(((1-(4-((1R,2S)-6-hydroxy-2-phenyl-1,2,3,4-tetrahydronaphthalen-1-yl)phenyl)azetidin-3-yl)methyl)amino)cyclohexyl)-6,7-dihydropyrrolo[3,4-f]isoindole-1,3(2H,5H)-dione]"
16,> 100,"O=C1CCC(N2C(=O)c3cc4c(cc3C2=O)CN(Cc2cnc(N3CC(Oc5ccc([C@@H]6c7ccc(O)cc7CC[C@@H]6c6ccccc6)cc5)C3)cn2)C4)C(=O)N1 (stereo partly drawn) [Compound B104, 2-(2,6-dioxopiperidin-3-yl)-6-((5-(3-(4-((1R,2S)-6-hydroxy-2-phenyl-1,2,3,4-tetrahydronaphthalen-1-yl)phenoxy)azetidin-1-yl)pyrazin-2-yl)methyl)-6,7-dihydropyrrolo[3,4-f]isoindole-1,3(2H,5H)-dione]"
17,< 10,"O=C1CCC(N2Cc3cc4c(cc3C2=O)CN(C(=O)CN2CCC3(CC2)CCN(c2ccc([C@@H]5c6ccc(O)cc6CC[C@@H]5c5ccccc5)cc2)CC3)C4)C(=O)N1 (stereo partly drawn) [Compound B105, 3-(6-(2-(9-(4-((1R,2S)-6-hydroxy-2-phenyl-1,2,3,4-tetrahydronaphthalen-1-yl)phenyl)-3,9-diazaspiro[5.5]undecan-3-yl)acetyl)-1-oxo-3,5,6,7-tetrahydropyrrolo[3,4-f]isoindol-2(1H)-yl)piperidine-2,6-dione]"

row,Structure (SMILES),DC50 [nM]
1,"O=C1CCC(N2C(=O)c3cc4c(cc3C2=O)CN([C@H]2CC[C@@H](NC3CN(c5ccc([C@@H]6c7ccc(O)cc7CC[C@@H]6c6ccccc6)cc5)C3)CC2)C4)C(=O)N1 (stereo partly drawn) [Compound B102, 2-(2,6-dioxopiperidin-3-yl)-6-((1S,4s)-4-((1-(4-((1R,2S)-6-hydroxy-2-phenyl-1,2,3,4-tetrahydronaphthalen-1-yl)phenyl)azetidin-3-yl)amino)cyclohexyl)-6,7-dihydropyrrolo[3,4-f]isoindole-1,3(2H,5H)-dione]",> 100
2,"O=C1CCC(N2C(=O)c3cc4c(cc3C2=O)CN([C@H]2CC[C@H](NC3CN(c5ccc([C@@H]6c7ccc(O)cc7CC[C@@H]6c6ccccc6)cc5)C3)CC2)C4)C(=O)N1 (stereo partly drawn) [Compound B103, 2-(2,6-dioxopiperidin-3-yl)-6-((1R,4r)-4-((1-(4-((1R,2S)-6-hydroxy-2-phenyl-1,2,3,4-tctrahydronaphthalen-1-yl)phenyl)azetidin-3-yl)amino)cyclohexyl)-6,7-dihydropyrrolo[3,4-f]isoindole-1,3(2H,5H)-dione]",> 100

# From US20260028354A1, “TETRAHYDRONAPHTHALENE DERIVATIVES AS ESTROGEN RECEPTOR DEGRADERS” (REGENT OF THE UNIVERSITY OF MICHIGAN, priority 2022, published 2026)
